Measured values from US9675712B2, “pH sensitive fluorescent polydiacetylene liposome and delivery vehicle comprising same” (priority 2012, dated 2017).

Tested on: E. coli 0-157(ATCC 43894)
Assay: Anti-bacterial analysis of drug release in vitro (plaque / growth inhibition area on agar plate)
Type: cell-based
Conditions: dish (c): standard solution in PBS; 20 μl, 37° C. overnight
Method: In order to prepare an LB broth and an agar medium, 12.5 g of the LB broth and 7.5 g of the plant agar were transferred to 1 L sterile flask. The components were dissolved in 500 mL of distilled water or deionized water, and flask was tightly covered with an aluminum foil, a plug or a cap similar thereto. The mixture was heated until a boiling point was reached to dissolve the agar, and sterilized by autoclave at 121-124° C. for 15 mins, and then waited until the autoclave was cooled and a pressure was 0. The medium was removed from the autoclave and cooled to room temperature. When the LB agar was cooled to a temperature (approximately 45° C.) which is still considered hot by touch, 0.5 cm or ¼ layer of agar was poured into the Petri dish. It corresponds to approximately 20 to 25 mL volumes of the agar. The Petri dish was positioned on a flat surface until the agar was completely solidified for 30 to 40 mins. The Petri dish containing the solid agar was stored at 4° C.
300 μl of bacteria (E. coli) was added to 3.0 mL of the LB broth, and the culture fluid was strongly shaken. Then, the culture fluid was cultured in an incubator shaking the bacteria at 37° C. overnight. […]
First, a growth inhibition area (plaque) will be shown in the fusible bacterial habitat in the case in which the drug is smoothly released from the liposome. […] Third, the analysis method needs to be quantitative.

## CC1(C)S[C@@H]2[C@H](NC(=O)[C@H](N)c3ccccc3)C(=O)N2[C@H]1C(=O)O [ampicillin standard solution, ampicillin]
  growth inhibition area: growth inhibition area was generally observed
